Read-outs that look alike come from different tables or passages of the source.
Legend:
Assay type in all cases: biochemical
Pak1 = biological target: T1, Pak1 (Homo sapiens, UniProt Q13153); assay: In Vitro Pak1 Enzyme Assay (SPA); conditions: read-out: IC50 value in the Pak 1 enzyme assay
T1 construct: The full-length Pak1 protein is expressed in E. coli as a GST fusion; GST; made in house; host or cells: E. coli
Procedure: (§1) The assay used Scintillation Proximity Assay (SPA) technology (Antonsson et al., Analytical Biochemistry, 1999, 267: 294-299) to determine the ability of test compounds to inhibit phosphorylation by recombinant Pak1. The full-length Pak1 protein is expressed in E. coli as a GST fusion and purified using the GST tag using standard purification techniques.
(§2) Test compounds were prepared as 10 mM stock solutions in DMSO and diluted into water as required to give a range of final assay concentrations. Aliquots (5 μl) of each compound dilution were placed into a well of a Matrix 384-well flat bottom white polystyrene plate (Catalogue No. 4316). […]
(§3) Each reaction was stopped and the biotinylated peptide captured by the addition of 30 Ξl of a mixture of Streptavidin coated PVT SPA bead slurry (Amersham Biosciences, Catalogue No. RPQO205; 250 μg/well) in 50 mM Tris-HCl pH7.5 buffer containing 0.05% sodium azide followed by the addition of 30 μl of 2.83M Caesium chloride (final assay concentration of 1M). Plates are then left for 2 hours on the bench before being counted on a TopCount. […]
Pak1 enzyme inhibition for a given test compound was expressed as an IC50 value.

Pak4 = biological target: T2, Pak4 (Homo sapiens, UniProt O96013); assay: In Vitro Pak4 Enzyme Assay (SPA); conditions: read-out: IC50 value in the Pak 4 enzyme assay
T2 construct: The kinase domain of Pak4 (amino acids 291 to 591) is expressed in E. coli as a GST fusion; GST; made in house; host or cells: E. coli
T2 sequence (O96013 291-591): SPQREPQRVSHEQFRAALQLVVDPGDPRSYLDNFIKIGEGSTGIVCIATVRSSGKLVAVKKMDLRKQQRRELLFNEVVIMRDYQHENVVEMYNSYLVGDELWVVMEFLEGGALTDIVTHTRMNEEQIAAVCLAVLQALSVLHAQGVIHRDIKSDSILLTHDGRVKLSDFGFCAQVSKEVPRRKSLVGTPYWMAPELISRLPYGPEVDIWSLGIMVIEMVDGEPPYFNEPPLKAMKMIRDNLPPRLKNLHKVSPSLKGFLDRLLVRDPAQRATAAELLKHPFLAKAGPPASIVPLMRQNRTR
Procedure: as §1, with “Pak4.” for “Pak1.”, “kinase domain of Pak4 (amino acids 291 to 591)” for “full-length Pak1 protein”
as §2
as §3, with “μl” for “Ξl”, “RPQ0205;” for “RPQO205;”
Pak4 enzyme inhibition for a given test compound was expressed as an IC50 value. […]

PDK1 = biological target: T3, PDK1 (Homo sapiens, UniProt O15530); assay: PDK1 Enzyme Assay (Alphascreen)
T3 construct: 6His; made in house; host or cells: insect cells
T3 sequence (O15530 1-556): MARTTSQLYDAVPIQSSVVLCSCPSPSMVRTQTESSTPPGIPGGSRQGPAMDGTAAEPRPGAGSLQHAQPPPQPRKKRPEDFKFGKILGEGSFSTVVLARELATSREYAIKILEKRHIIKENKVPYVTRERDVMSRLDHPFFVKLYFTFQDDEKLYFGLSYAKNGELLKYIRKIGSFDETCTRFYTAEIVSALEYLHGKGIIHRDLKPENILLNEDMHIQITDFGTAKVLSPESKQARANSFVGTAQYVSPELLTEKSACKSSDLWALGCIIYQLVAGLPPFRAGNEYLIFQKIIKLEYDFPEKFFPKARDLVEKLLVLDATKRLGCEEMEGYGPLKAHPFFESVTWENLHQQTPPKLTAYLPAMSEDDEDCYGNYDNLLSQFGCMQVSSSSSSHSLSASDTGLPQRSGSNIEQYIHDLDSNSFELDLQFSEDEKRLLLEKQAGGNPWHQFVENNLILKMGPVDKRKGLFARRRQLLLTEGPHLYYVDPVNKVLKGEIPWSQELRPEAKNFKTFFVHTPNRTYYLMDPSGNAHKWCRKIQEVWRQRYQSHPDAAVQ
Procedure: The assay utilised Alphascreen technology (Ullman, E F, et al. Proc. Natl. Acad. Sci. USA, Vol. 91, pp. 5426-5430, 1994) to measure the ability of compounds to inhibit PDK1 enzyme activity. 6H is tagged PDK1 enzyme was expressed in insect cells and purified using NiNTA beads and conventional protein purification methodology.
Test compounds were prepared as 10 mM stock solutions in DMSO and diluted into water as required to give a range of final assay concentrations. 2 μl aliquots of compounds were dispensed into Greiner Bio-One low volume 384 well plates (Catalogue no. 784075). For the activity assay, to each well was added 5 μl of a mixture of 48 nM native peptide (Biotin-Ahx-[…]NH2, Bachem UK Ltd) and 12 μM adenosine triphosphate (ATP) in reaction buffer comprising Tris-HCl pH7.4 (60 mM), magnesium acetate (12 mM), EGTA (120 μM), DTT (1.2 mM) and bovine serum albumin (0.12 mg/ml). […]
Each reaction was stopped by addition of 5 μl of a solution containing Tris-HCl pH7.4 (50 mM), bovine serum albumin (1 mg/ml), EDTA (90 mM), anti-phospho Akt T308 antibody, R&D Systems, Catalogue no. […] Plates were then sealed and incubated overnight in low light conditions before being read on an Envision plate reader (Perkin Elmer). […]

CHK1 kinase = biological target: T4, CHK1 kinase (Homo sapiens, UniProt O14757); assay: Checkpoint Kinase 1 Assay (SPA)
T4 construct: The kinase domain is expressed in baculovirus and purified by the GST tag; GST; made in house; host or cells: baculovirus system (insect cells implied)
T4 sequence (O14757 9-265 limits assumed): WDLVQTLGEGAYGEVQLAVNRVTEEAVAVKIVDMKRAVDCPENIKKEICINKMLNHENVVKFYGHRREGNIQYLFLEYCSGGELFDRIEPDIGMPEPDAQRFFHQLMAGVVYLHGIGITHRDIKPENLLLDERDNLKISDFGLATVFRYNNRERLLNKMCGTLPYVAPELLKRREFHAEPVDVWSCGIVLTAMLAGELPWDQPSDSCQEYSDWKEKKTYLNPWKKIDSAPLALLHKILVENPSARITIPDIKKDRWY
Procedure: Checkpoint Kinase 1 Assay: This in vitro assay measures the inhibition of CHK1 kinase by compounds. The kinase domain is expressed in baculovirus and purified by the GST tag. Purified protein and biotinylated peptide substrate (Cdc25C) is then used in a 384 well automated Scintillation Proximity Assay (SPA). Specifically, peptide, enzyme and reaction buffer are mixed and aliquoted into a 384 well plate containing dilution series of compounds and controls. Cold and hot ATP are then added to initiate the reaction. After 2 hours, a SPA bead slurry, […] and EDTA are added to stop the reaction and capture the biotinylated peptide. Plates are then counted on a Topcount. Data is analyzed and IC50s determined for individual compounds.

T1 sequence (Q13153 whole entry, the tested form may be a part): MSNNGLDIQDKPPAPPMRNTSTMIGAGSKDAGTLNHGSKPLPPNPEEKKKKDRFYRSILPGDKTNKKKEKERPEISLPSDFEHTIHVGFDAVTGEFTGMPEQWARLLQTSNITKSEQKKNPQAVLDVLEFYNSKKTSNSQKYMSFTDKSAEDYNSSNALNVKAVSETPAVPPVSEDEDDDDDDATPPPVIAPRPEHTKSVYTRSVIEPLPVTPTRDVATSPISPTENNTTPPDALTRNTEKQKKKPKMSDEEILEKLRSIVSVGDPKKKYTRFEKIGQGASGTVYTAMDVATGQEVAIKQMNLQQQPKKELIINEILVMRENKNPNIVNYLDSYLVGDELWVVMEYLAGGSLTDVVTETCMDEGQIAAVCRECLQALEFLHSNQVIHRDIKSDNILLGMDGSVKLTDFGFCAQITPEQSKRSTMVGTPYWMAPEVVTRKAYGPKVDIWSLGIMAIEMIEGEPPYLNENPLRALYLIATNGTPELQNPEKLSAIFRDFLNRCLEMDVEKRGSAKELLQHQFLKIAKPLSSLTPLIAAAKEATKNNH

Compound | IC50 (Pak1) [nM] | IC50 (Pak4) [nM] | IC50 (PDK1) [nM] | IC50 (CHK1 kinase) [nM] | IC50 (CHK1 kinase; read-out: IC50 value in the Checkpoint Kinase 1 assay) [nM]
NC(=O)c1cnc(N[C@H]2CCCNC2)c2cc(-c3cc(F)cc(F)c3)sc12 [Example 10, 2-(3,5-difluorophenyl)-4-[(3S)-piperidin-3-ylamino]thieno[3,2-c]pyridine-7-carboxamide] | 730 | 140 | 350 | – | –
Cc1cc2c(N[C@H]3CCCNC3)ncc(C(N)=O)c2s1 [Example 157, 2-methyl-4-[(3S)-piperidin-3-ylamino]thieno[3,2-c]pyridine-7-carboxamide] | – | – | – | 150 | –
NC(=O)c1cnc(N[C@H]2CCCNC2)c2cc(-c3ccc(Cl)cc3)sc12 [Example 14, 2-(4-chlorophenyl)-4-[(3S)-piperidin-3-ylamino]thieno[3,2-c]pyridine-7-carboxamide] | 600 | 100 | 160 | – | –
NCCNc1ncc(C(N)=O)c2sc(-c3ccccc3)cc12 [Example 16, 4-[(2-aminoethyl)amino]-2-phenylthieno[3,2-c]pyridine-7-carboxamide] | – | – | – | – | 550

Source: patent US20090275570A1, “SUBSTITUTED HETEROCYCLES AND THEIR USE AS CHK1, PDK1 AND PAK INHIBITORS” (ASTRAZENECA AB, priority 2005, published 2009)
